Data: patent publication US11084795B2, “CFTR regulators and methods of use thereof” (The Regents of the University of California, priority 2015, dated 2021)
Entries after “also recorded” stand apart in the source; their conditions may differ. Like-named read-outs stand apart in the source and are kept apart here. Where a SMILES comes first, the peptide text is derived from it. Bridges are numbered along the chain shown (N, C = ends).

Tests used:
human wildtype CFTR [1] = target: T1, human wildtype CFTR (Homo sapiens, UniProt P13569); assay: Short-circuit current (Isc) in FRT cells expressing human wild-type CFTR; details: for EC50: FRT cells, short-circuit current; for extent of CFTR activation (Isc): forskolin produced little or no further increase in current
human wildtype CFTR [2] = target: T1, human wildtype CFTR; assay: Fluorescence plate reader assay of iodide influx in FRT cells co-expressing CFTR and YFP halide sensor
[3] = system: CFTR at the ocular surface; assay: Ocular surface potential difference (PD) in living mice; format: in vivo, mouse; details: wild-type mice; for change in ocular surface PD: 1-10 μM
Procedure: Open-circuit transepithelial PD were measured continuously in anesthetized mice in response to serial perfusions of different solutions over the ocular surface, as described (21). Mice were anesthetized with Avertin (2,2,2-tribromoethanol, 125 mg/kg intraperitoneal, Sigma-Aldrich, St. Louis, Mo., USA), and core temperature was maintained at 37° C. using a heating pad. Eyes were oriented with the cornea and conjunctiva facing upward and exposed by retracting the eyelid with cross-action forceps. Solutions were isosmolar (320±10 mOsM; compositions provided in ref. 21) and contained 10μ[…] indomethacin to prevent CFTR activation by prostaglandins. The ocular surface was perfused at 6 mL/min through plastic tubing using a multireservoir gravity pinch-valve system (ALA Scientific, Westbury, N.Y., USA) and variable-flow peristaltic pump (medium flow model; Fisher Scientific, Fair Lawn, N.J., USA). A probe catheter was fixed 1 mm above the cornea using a micropositioner and a suction cannula was positioned 3 mm from the orbit. The measuring electrode was in contact to the perfusion catheter and connected to a high-impedance voltmeter (IsoMilivolt Meter; WPI). The reference electrode was grounded via a winged 21-gauge needle filled with isosmolar saline, and inserted subcutaneously in the abdomen. Measuring and reference electrodes consisted of Ag/AgCl with 3 M KCl agar bridges.
An open-circuit potential difference (PD) method developed in our lab was used to evaluate compound activity at the ocular surface in vivo, as depicted in FIG. 3A (21). Cl^− channel function was quantified by measuring PD during continuous perfusion of the ocular surface with a series of solutions that imposed a transepithelial Cl^− gradient and contained various channel agonists and/or inhibitors. The ocular surface was first perfused with isosmolar saline to record the baseline PD. Amiloride was then added to the perfusate, followed by exchange to a low Cl^− solution in which Cl^− with an impermeant anion, gluconate. These maneuvers allow for direct visualization of CFTR activation in response to addition of candidate CFTR activators.
Ocular surface potential difference measurements. Open-circuit transepithelial PD were measured continuously in anesthetized mice in response to serial perfusions of different solutions over the ocular surface, as described (21). Mice were anesthetized with Avertin (2,2,2-tribromoethanol, 125 mg/kg intraperitoneal, Sigma-Aldrich, St. Louis, Mo., USA), and core temperature was maintained at 37° C. using a heating pad. Eyes were oriented with the cornea and conjunctiva facing upward and exposed by retracting the eyelid with cross-action forceps. […]

LGE BALB/c mice = assay: Lacrimal gland excision (LGE) mouse model of aqueous-deficient dry eye; format: in vivo
Procedure: (§1) To assess corneal epithelial disruption, 5 μL of lissamine green (LG) dye (1%) was applied to the ocular surface of isofluorane-anesthetized mice. Photographs of the eye were taken using a Nikon Digital camera adapted to an Olympus Zoom Stereo Microscope (Olympus, Center Valley, Pa., USA). Each corneal quadrant was scored on a 3-point scale by one blinded, trained observer, with the extent of staining in each quadrant classified as: 0, no staining; 1, sporadic (involving <25% of the total surface) staining; grade 2, diffuse punctate staining (25-75%); and grade 3, coalesced punctate staining (>75%). The total grade is reported as the sum of scores from all four quadrants, ranging from 0 to 12.
A lacrimal gland excision (LGE) model of aqueous-deficient dry eye was adapted from a reported method (30). The extraorbital lacrimal gland was exposed on each side of wild-type female BALB/c mice (7-8 weeks of age) by 3-mm linear skin incisions. Lacrimal ducts were cauterized and the entire gland was removed bilaterally, avoiding facial vessels and nerves. Incisions were each closed with a single interrupted 6-0 silk suture. Orbital lacrimal tissue remained functional. Eyes with reduced corneal sensation (<5% of mice studied), as identified from neurotrophic corneal ulcers within 1 day of LGE, were excluded. Mice were randomized to receive either treatment (in both eyes) with CFTRact-K089 (0.1 nmol) or vehicle. Mice were treated three times daily (8 AM, 2 PM and 8 PM) for 2 weeks starting on Day 1 after LGE. Tear secretion and LG staining were performed immediately prior to, and one hour after the initial dose on day 4, 10 and 14 after LGE.
Lissamine green staining. […] Each corneal quadrant was scored on a 3-point scale by one blinded, trained observer, with the extent of staining in each quadrant classified as: 0, no staining; 1, sporadic (involving <25% of the total surface) staining; grade 2, diffuse punctate staining (25-75%); and grade 3, coalesced punctate staining (≥75%). […]

tear fluid secretion = format: in vivo, mouse
[4] = Ocular toxicity after chronic topical dosing (slit-lamp, lissamine green staining); format: in vivo; details: chronically treated mice
Procedure: as §1
as §1, with “Lissamine green staining. To” for “To”, “(≥75%).” for “(>75%).”

[5] = Compound accumulation in systemic tissues after 14 days topical dosing; format: in vivo, mouse
FRT cells = assay: Alamar Blue cytotoxicity assay in FRT cells; format: cell-based, rat; details: up to 100 μM, 1 or 24 h
[6] = Tear film pharmacokinetics (LC/MS of tear washes)
loperamide-treated mice = assay: Loperamide-induced mouse model of constipation
[7] = system: chronic constipation / IBS-C patients; details: linaclotide: chronic constipation; lubiprostone: IBS-C; cited from earlier work
[8] = wild-type mice, B074 100 μM, J027 and K089 50 μM, VX-770 10 μM, cholera toxin 0.1 μg/mL, forskolin 20 μM, IBMX 250 μM

T1 sequence (P13569 whole entry): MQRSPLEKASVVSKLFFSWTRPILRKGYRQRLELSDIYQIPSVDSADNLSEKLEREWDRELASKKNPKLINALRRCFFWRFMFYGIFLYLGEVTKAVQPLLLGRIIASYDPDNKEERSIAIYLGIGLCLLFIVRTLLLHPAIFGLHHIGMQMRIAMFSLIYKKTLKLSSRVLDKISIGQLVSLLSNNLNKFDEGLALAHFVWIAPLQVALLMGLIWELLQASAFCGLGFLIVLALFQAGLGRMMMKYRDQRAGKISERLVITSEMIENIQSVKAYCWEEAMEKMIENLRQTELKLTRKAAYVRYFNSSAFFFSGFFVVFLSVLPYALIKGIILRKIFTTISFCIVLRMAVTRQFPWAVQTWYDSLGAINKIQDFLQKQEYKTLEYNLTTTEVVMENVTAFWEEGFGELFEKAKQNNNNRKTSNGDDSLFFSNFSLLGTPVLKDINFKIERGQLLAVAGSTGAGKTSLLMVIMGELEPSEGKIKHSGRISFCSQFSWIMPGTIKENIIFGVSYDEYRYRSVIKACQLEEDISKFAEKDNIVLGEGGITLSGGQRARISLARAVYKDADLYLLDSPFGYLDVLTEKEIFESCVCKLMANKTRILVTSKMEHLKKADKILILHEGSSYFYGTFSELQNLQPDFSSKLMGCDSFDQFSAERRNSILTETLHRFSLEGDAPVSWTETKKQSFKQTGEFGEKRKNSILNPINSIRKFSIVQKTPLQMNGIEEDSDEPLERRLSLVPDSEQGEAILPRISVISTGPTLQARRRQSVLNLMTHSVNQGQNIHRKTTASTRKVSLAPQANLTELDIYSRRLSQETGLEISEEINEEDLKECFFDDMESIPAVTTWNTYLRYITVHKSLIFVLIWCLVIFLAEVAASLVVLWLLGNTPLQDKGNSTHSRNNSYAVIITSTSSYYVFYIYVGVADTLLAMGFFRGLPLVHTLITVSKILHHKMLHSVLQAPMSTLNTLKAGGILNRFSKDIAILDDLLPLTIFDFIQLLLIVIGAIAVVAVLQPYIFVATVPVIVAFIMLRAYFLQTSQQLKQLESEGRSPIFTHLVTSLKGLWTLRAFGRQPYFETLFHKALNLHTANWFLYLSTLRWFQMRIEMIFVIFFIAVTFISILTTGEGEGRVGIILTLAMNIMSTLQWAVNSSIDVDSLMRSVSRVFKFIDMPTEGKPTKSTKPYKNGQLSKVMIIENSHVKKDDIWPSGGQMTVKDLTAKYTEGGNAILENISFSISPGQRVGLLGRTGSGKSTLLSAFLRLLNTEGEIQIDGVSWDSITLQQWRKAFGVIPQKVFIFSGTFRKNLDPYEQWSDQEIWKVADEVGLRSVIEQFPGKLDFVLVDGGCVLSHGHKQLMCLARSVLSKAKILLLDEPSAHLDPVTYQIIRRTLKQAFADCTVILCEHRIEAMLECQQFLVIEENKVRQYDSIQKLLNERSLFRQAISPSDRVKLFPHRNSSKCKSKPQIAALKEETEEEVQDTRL

## Nc1ccc([N+](=O)[O-])cc1-c1nc2cc(Cl)ccc2n(Cc2ccccc2)c1=O [CFTRact-J135, 3-(2-Amino-5-nitrophenyl)-1-benzyl-6-chloroquinoxalin-2(1H)-one]
Human wildtype CFTR [1]; EC50 for CFTR activation, wild-type CFTR
  EC50: ~0.3 µM
Human wildtype CFTR [1]
  extent of CFTR activation (Isc): fully activated CFTR
Human wildtype CFTR [2]
  EC50: 0.11 µM

## CCN(CC)c1nc(Nc2ccccc2)nc(OC(C(F)(F)F)C(F)(F)F)n1 [CFTRact-K089]
[3]
  hyperpolarization in ocular surface potential difference: ~8.5 mV
  change in ocular surface PD: large hyperpolarizations
LGE BALB/c mice; 0.1 nmol three times daily
  corneal / ocular surface epithelial disruption after LGE: fully prevented the corneal epithelial disruption; also recorded: prevented ocular surface epithelial disruption at all time points
LGE BALB/c mice; 0.1 nmol topically three times daily
  tear volume after LGE: restored tear secretion to basal levels; also recorded: maintained basal tear volume
LGE BALB/c mice; 12-point scale, by Day 14, 0.1 nmol three times daily
  LG score change: −0.6±0.6
Tear fluid secretion; CF mice
  tear fluid secretion in CF mice: no effect in CF mice
Tear fluid secretion; [8]
  tear fluid secretion after single topical dose: doubled basal tear secretion for four hours; also recorded: increased tear fluid secretion by approximately two-fold for at least four hours
Human wildtype CFTR [1]; 100% = 20 μM forskolin
  CFTR activation (% Vmax): ~50 % Vmax
Human wildtype CFTR [1]
  extent of CFTR activation (Isc): fully activated CFTR
Human wildtype CFTR [1]; read-out: EC50 for CFTR activation, wild-type CFTR
  EC50: ~0.25 µM
[4]
  LG staining of cornea and conjunctiva: no corneal or conjunctival epithelial disruption
[4]; topical three times daily, two weeks
  ocular toxicity (slit-lamp evaluation): no signs of ocular toxicity
[5]; topical
  systemic absorption after topical delivery: without detectable systemic absorption
[5]; two weeks of three times per day topical dosing
  amount in mouse blood, brain, liver and kidney (limit of detection): < 10 fmol
FRT cells
  in vitro cytotoxicity: no appreciable in vitro cytotoxicity
[6]; 0.1 nmol (2 μL, 50 μM) instilled
  amount recovered from tear washes at six hours: 0.011 ± 0.004 pmol
[6]; 0.1 nmol single dose
  duration of predicted therapeutic tear fluid levels: therapeutic levels for at least six hours

## Nc1ccc([N+](=O)[O-])cc1-c1nc2cccc3c2n(c1=O)C(c1ccccc1)CO3 (centres unmarked) [Compound 20, 6-(2-Amino-5-nitrophenyl)-3-phenyl-2,3-dihydro-5H-[1,4]oxazino[4,3,2-de]quinoxalin-5-one]
Human wildtype CFTR [2]
  EC50: > 10 µM

## Fc1ccc2nc3n(Cc4ccccc4)c4ccc(C(F)(F)F)cc4nc-3c2c1 [Compound 22]
Human wildtype CFTR [2]
  EC50: > 10 µM

## CC(C)Cn1c(=O)n(C)c(=O)c2[nH]cnc21 [IBMX, 3-isobutyl-1-methylxanthine, reference compound]
Tear fluid secretion; [8]
  tear fluid secretion after single topical dose: substantially increased basal tear secretion at 30 min, but these effects were transient and undetectable after 2 hours

## CC(C)(C)c1cc(C(C)(C)C)c(NC(=O)c2c[nH]c3ccccc3c2=O)cc1O [VX-770, reference compound]
[3]
  change in ocular surface PD: minimal changes in ocular surface PD
Tear fluid secretion; [8]
  tear fluid secretion after single topical dose: little tear secretion
Human wildtype CFTR [1]
  activity against wild-type CFTR: relatively weak activity
Human wildtype CFTR [1]; wild-type CFTR
  maximal CFTR activation: 15%

## Cn1c(=O)c(-c2cc([N+](=O)[O-])ccc2N)nc2ccccc21 [inactive chemical analog of CFTRact-J027, reference compound]
loperamide-treated mice; loperamide-treated wildtype mice
  efficacy on stool parameters of inactive analog: nor was an inactive chemical analog of CFTRact-J027 effective in wildtype mice

## C[C@@H]1NC(=O)[C@@H]2CCCN2C(=O)[C@H](CC(N)=O)NC(=O)[C@@H]2CSSC[C@H](N)C(=O)N[C@H]3CSSC[C@H](NC1=O)C(=O)N[C@@H]([C@@H](C)O)C(=O)NCC(=O)N[C@H](C(=O)N[C@@H](Cc1ccc(O)cc1)C(=O)O)CSSC[C@H](NC(=O)[C@H](Cc1ccc(O)cc1)NC(=O)[C@H](CCC(=O)O)NC3=O)C(=O)N2 [linaclotide, reference compound] (H-CCEYCCNPACTGCY-OH; disulfide 1-6, 2-10, 5-13)
loperamide-treated mice; oral 0.5 mg/kg, loperamide-treated mice
  stool output normalization as % of the maximal CFTRact-J027 response: 35%
[7]
  patients in whom the drug was effective: ~20%

## CCCCC(F)(F)[C@@]1(O)CC[C@H]2[C@@H](CC(=O)[C@@H]2CCCCCCC(=O)O)O1 [lubiprostone]
[7]
  patients in whom the drug was effective: ~13%

## cholera toxin [reference compound]
Tear fluid secretion; mouse, in vivo
  tear fluid secretion after single topical dose: substantially increased basal tear secretion at 30 min, but these effects were transient and undetectable after 2 hours
